Assay results reported in publication PMC10822168, “Development of potent isoflavone-based formyl peptide receptor 1 (FPR1) antagonists and their effects in gastric cancer cell models” (European journal of medicinal chemistry, 2023).

Experiments:
Type in all cases: cell-based, human
NCl–N87 cells = experiment: Scratch migration assay in NCl–N87 cells; details: NCl–N87, fMLF 10 nM, 24 h incubation
Text: The results are representative of three independent experiments.

AGS cells = experiment: Scratch migration assay in AGS cells; details: fMLF 10 nM, 24 h incubation
Method: The effect of FPR1 blockade on cell migration was assessed using the scratch assay, an easy and well-developed method to measure cell migration in vitro. […] Conversely, 24a and 25a reduced the migration rate in a dose-dependent manner. The effect was more pronounced in NCl–N87 as compared to AGS cells. […] The effect was FPR1-mediated, as it was counterbalanced by co-administration of the agonist fMLF (10 nM).
Fig. 8. Effect of 24a and 25a on cell migration in NCl–N87 and AGS cell lines. Scratch assay assessed on cells treated with fMLF (10 nM) and 24a or 25a (1, 1.5, 2 μM) administrated alone or combining the lowest dose of 24a or 25a with fMLF. The cells were microscopically analyzed at the time of the scratch (T0) and after 24 h (T1). The relative migration rate was calculated by setting the percentage of migration of the control cells at time T1 equal to 1 and comparing the migration percentage of the cells after each drug treatment to this value. Representative original photographs (panel A) and quantitative analysis (panel B) of the cell-free scratch path ares. […] Statistical analysis was assessed by comparing the values obtained using a single drug treatment to those of corresponding untreated cells and the combined treatments to those of the single treatments, *p < 0.05, **p < 0.001, ****p < 0.0001. […]

VEGFA [1] = experiment: ELISA of VEGFA secretion in culture medium of NCl–N87 cells; details: NCl–N87, fMLF 10 nM, 48 h
Method: (§1) Secretion of VEGFA and angiopoietin 2 (Ang2) in the culture medium of NCl–N87 and AGS cells was assessed after 48 h of drug treatment using ELISA methods (Fig. 10). […] Once again, the effects were more pronounced in NCl–N87 cells than in AGS, and the effect of 25a was more pronounced as compared to 24a. The co-administration of fMLF (10 nM) partially counteracted the effects.
(§2) Fig. 10. Effect of 24a and 25a on the secretion of VGFA (A) and Ang2 (B) in NCl–N87 and AGS cell lines. The ELISA assays were assessed on cells after 48 h of drug treatment with fMLF (10 nM) and 24a or 25a (1, 5 μM) administrated alone or combining the lowest dose of 24a or 25a with fMLF. The concentration of VEGFA (A) or Ang2 (B) was determined in the medium and normalized for the cell number. The values ± SD, obtained from three independent experiments expressed as pg/mL, were shown in the relative graphs. Statistical analysis was assessed by comparing the values obtained using a single drug treatment to those of corresponding untreated cells and the combined treatments to those of the single treatments. **p < 0.001; ***p < 0.0002; ****p < 0.0001. […]

angiopoietin 2 (Ang2) [2] = experiment: ELISA of angiopoietin 2 secretion in culture medium of NCl–N87 cells; details: NCl–N87, fMLF 10 nM, 48 h
Method: as §1, §2

VEGFA [3] = experiment: ELISA of VEGFA secretion in culture medium of AGS cells; details: fMLF 10 nM, 48 h
Method: as §1, §2

angiopoietin 2 (Ang2) [4] = experiment: ELISA of angiopoietin 2 secretion in culture medium of AGS cells; details: fMLF 10 nM, 48 h
Method: as §1, §2

VEGFA mRNA = experiment: Real-time PCR of VEGFA mRNA expression in NCl–N87 and AGS cells; details: 24 h, fMLF 10 nM, antagonists 1 or 2 μM, normalized to GAPDH, untreated = 1
Text: (§3) It has been reported that FPR1 can exert a tumor suppressor function in human GC by inhibiting angiogenesis and that silencing of the receptor increases the constitutive proangiogenic potential of GC cells. Therefore, we assessed the effect of 24a and 25a on the mRNA expression level and secretion of the proangiogenic factors, the vascular growth factor A (VEGFA), and the angiopoietin 2. […] These effects were more pronounced in NCl–N87 cells and resulted more strongly for 25a than 24a. The values obtained after each treatment were normalized to the expression of GAPDH and compared to the reference value of the two genes in untreated cells, which were set equal to 1 (Fig. 9).
(§4) Fig. 9. Effect of 24a and 25a on mRNA expression of VGFA and ANGPT2 in NCl–N87 and AGS cell lines. Real-time PCR experiments in NCl–N87 and AGS cells with specific primers for VEGFA and ANGPT2 genes. The mRNA expression was normalized on the GAPDH housekeeping gene. Expression analysis was performed after treatment with fMLF (10 nM) and 24a or 25a (1, 2, 5 μM) administrated alone or combining the lowest dose of 24a or 25a with fMLF. All expression values were calculated against the value of untreated PTX-sensitive cells, set equal to 1. Statistical analysis was assessed by comparing the values obtained using single drug treatment to those of corresponding untreated cells and the combined treatments to those of single treatments. The values of untreated PTX-resistant cells were compared with those of untreated PTX-sensitive ones. Data were mean ± SD (n = 3). *p < 0.05, **p < 0.001, ***p < 0.0002, ****p < 0.0001.
(§5) Total RNA was extracted from FPR1 antagonist-treated NCl–N87 and AGS treated cells using the Qiagen RNeasy Mini Kit (Qiagen, Hilden, Germany) following the manufacturer’s instructions. Samples were retro-transcribed using the iScript Advanced cDNA Synthesis Kit (Bio-Rad Laboratories, California, USA). Real-Time-PCRs analyzed cDNA samples for the evaluation of VEGFA and ANGPT2 expression. […] Relative quantification was performed using the ddCT method.

ANGPT2 mRNA = experiment: Real-time PCR of ANGPT2 mRNA expression in NCl–N87 and AGS cells; details: 24 h, fMLF 10 nM, antagonists 1 or 2 μM, normalized to GAPDH, untreated = 1
Text: as §3, §4, §5

N-formyl-methionyl-leucyl-phenylalanine [fMLF]
increase in cell mobility (NCl–N87 cells): 41% | increase in cell mobility (AGS cells): 32% | reduction in the secretion of VEGFA (VEGFA [1]): approximately 40% | reduction in the secretion of Ang2 (angiopoietin 2 (Ang2) [2]): ~22% | reduction in the secretion of VEGFA (VEGFA [3]): ~35% | reduction in the secretion of Ang2 (angiopoietin 2 (Ang2) [4]): ~23% | VEGFA mRNA expression (VEGFA mRNA): reduced expression | angiopoietin 2 (ANGPT2) mRNA expression (ANGPT2 mRNA): reduced expression
